From ChEMBL document CHEMBL1201862, “PubChem BioAssay data set” (2004)
One block for each compound: values may come before it. Active and inactive are the calls of the source.

Assays:
[1] = HGIII-sPLA2 enzyme inhibition potency – biochemical, QFRET, IC50, dose response (AID 743457);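 further: green fluorescence rise as the enzyme cleaves BODIPY PC-A2 in liposomes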
[2] = potency of ADAM10 substrate cleavage blockers – biochemical, QFRET, dose response (AID 743254);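 further: ADAM10 enzyme with the DM2 quenched FRET peptide as substrate; EDANS fluorescence gain as the protease cuts the substrate; inhibitor potency against ADAM10 proteolytic activity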
[3] = target: Disintegrin and metalloproteinase domain-containing protein 17 (Homo sapiens, UniProt P78536); experiment: inhibition of ADAM17 substrate cleavage – biochemical, quenched FRET substrate, counter-screen for ADAM10 exosite inhibitor project, dose response (AID 743253)
Disintegrin and metalloproteinase domain-containing protein 17, sequence (P78536 whole entry, the tested form may be a part): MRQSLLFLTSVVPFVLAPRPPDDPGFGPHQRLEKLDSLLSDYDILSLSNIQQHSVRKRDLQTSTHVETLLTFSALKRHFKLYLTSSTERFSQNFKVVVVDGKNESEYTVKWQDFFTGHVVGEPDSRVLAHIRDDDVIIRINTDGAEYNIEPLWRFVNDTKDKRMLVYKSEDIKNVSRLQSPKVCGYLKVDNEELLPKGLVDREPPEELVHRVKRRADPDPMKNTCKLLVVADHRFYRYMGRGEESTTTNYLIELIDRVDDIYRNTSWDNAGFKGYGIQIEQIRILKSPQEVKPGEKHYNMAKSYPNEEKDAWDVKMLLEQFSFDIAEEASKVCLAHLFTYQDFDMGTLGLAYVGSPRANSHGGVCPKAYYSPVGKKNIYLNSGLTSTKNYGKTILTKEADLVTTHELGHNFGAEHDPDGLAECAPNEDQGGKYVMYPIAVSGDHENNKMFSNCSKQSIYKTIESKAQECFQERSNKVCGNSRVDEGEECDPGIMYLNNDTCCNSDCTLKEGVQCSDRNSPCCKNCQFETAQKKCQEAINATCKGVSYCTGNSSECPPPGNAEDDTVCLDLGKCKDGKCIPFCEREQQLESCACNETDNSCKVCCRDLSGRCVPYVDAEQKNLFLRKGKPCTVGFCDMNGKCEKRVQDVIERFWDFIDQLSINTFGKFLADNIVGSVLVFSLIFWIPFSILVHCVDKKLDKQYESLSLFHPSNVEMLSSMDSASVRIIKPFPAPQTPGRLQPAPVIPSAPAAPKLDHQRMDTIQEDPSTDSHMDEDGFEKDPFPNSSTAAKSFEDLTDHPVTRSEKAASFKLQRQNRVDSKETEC

[4] = Luminescence Cell-Based Dose Retest to Confirm Inhibitors of Cancer Stem Cells. [Related pubchem assays (depositor defined):AID2717, AID2721]; format: functional; conditions: Homo sapiens
Caspase-6 = target: T1, Caspase-6 (Homo sapiens, UniProt P55212); experiment: inhibition of CASP6 peptide cleavage – biochemical, VEID-R110 fluorescence, cherry-pick, dose response (AID 720632)
T1 sequence (P55212 whole entry): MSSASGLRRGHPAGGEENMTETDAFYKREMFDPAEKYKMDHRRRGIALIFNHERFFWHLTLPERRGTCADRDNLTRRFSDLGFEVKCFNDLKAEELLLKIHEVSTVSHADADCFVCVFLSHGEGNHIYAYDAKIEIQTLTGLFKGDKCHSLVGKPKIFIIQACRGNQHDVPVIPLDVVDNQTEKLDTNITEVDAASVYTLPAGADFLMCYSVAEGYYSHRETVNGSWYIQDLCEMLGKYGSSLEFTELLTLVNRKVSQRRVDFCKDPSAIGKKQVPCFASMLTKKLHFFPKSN

[5] = target: Mitogen-activated protein kinase 10 (Homo sapiens, UniProt P53779); experiment: Dose response biochemical screening assay for inhibitors of c-Jun N-Terminal Kinase 3 (JNK3). [Related pubchem assays: 746 ]
Mitogen-activated protein kinase 10, sequence (P53779 whole entry): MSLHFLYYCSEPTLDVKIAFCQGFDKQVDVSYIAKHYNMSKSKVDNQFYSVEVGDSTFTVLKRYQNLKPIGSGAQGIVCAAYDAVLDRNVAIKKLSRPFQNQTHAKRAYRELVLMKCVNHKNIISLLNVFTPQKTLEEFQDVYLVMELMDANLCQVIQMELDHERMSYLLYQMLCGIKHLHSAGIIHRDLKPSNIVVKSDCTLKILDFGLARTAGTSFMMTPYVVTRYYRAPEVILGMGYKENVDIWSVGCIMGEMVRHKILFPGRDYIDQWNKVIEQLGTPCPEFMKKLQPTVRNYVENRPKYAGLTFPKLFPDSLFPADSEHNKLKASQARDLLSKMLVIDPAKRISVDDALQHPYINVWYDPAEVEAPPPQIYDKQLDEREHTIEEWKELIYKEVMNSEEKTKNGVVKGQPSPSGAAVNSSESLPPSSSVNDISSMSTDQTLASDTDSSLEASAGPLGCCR

SMILES: O=C(NN=C(S)NC1CCCCC1)c1ccccc1O
- IC50 [1]: > 122 µM (inactive)

SMILES: Cc1ccc(-n2c(SCC(=O)Nc3cccc(S(N)(=O)=O)c3)nc3ccccc32)cc1
- IC50 [2]: > 69.5 µM (inactive)
- IC50 [3]: > 69.5 µM (inactive)

SMILES: O=C(N=CNOCc1ccc(Cl)cc1Cl)NOCc1ncc(C(F)(F)F)cc1Cl
- AC50 [4]: 4.02 µM (active)
- IC50 [2]: 12.9 µM (inactive)

SMILES: O=C(NC=NOCc1ccc(Cl)cc1Cl)NOCc1ncc(C(F)(F)F)cc1Cl
- IC50 [3]: > 69.5 µM (inactive)

SMILES: Cc1ccc(C)n1-c1sc2c(c1C(=O)O)CCCC2
- AC50 (Caspase-6): 6.02 µM (active)

SMILES: O=C(CCCCCn1c(SCC(=O)c2ccccc2)nc2ccccc2c1=O)NCc1ccco1
- IC50 [5]: 38.9 µM (not active)

Further lines, results first:

- AC50 (Caspase-6): 9.76 µM (active)
SMILES: O=C1c2ccccc2C(=O)c2c([N+](=O)[O-])ccc(O)c21

- IC50 [1]: 115 µM (inactive)
SMILES: O=C(NNC(=S)NC(=O)c1ccccc1[N+](=O)[O-])c1ccccc1Cl

- IC50 [1]: 64.9 µM (inactive)
SMILES: Cc1ccccc1OCC(=O)NNC(=S)NC(=O)c1ccccc1[N+](=O)[O-]

- IC50 [2]: 19.4 µM (inactive)
SMILES: CC(C)C[C@H](NC(=O)c1[nH]cnc1C(=O)NC(c1ccccc1)c1ccccc1)C(=O)OCc1ccccc1

- IC50 [3]: > 69.5 µM (inactive)
SMILES: CC(C)C[C@H](NC(=O)c1nc[nH]c1C(=O)NC(c1ccccc1)c1ccccc1)C(=O)OCc1ccccc1
